According to a compilation of properties of binary mixtures (doi:10.1021/acs.jced.8b00334):

Assay: xn = mol fraction of the nth substance listed
Conditions: 101.3 kPa

CCCCC[N+](CC)(CC)CC.O=S(=O)([N-]S(=O)(=O)C(F)(F)F)C(F)(F)F + CCCCC[P+](CC)(CC)CC.O=S(=O)([N-]S(=O)(=O)C(F)(F)F)C(F)(F)F
viscosity [mPa·s]
Conditions | x1 = 0.2 | x1 = 0.4 | x1 = 0.6 | x1 = 0.8 | x1 = 1
283.15 K | 229 | 266 | 316 | 386 | 479
288.15 K | 168 | 192 | 225 | 270 | 329
293.15 K | 126 | 143 | 165 | 194 | 233
298.15 K | 97 | 108 | – | 144 | 169
303.15 K | 75 | 84 | 94 | 109 | –
308.15 K | 60 | 66 | 74 | 84 | 96
313.15 K | 48.3 | 53 | 58 | 66 | 75
318.15 K | – | 42.9 | 47.2 | 53 | 60
323.15 K | 32.7 | 35.4 | 38.6 | 42.9 | 48
328.15 K | 27.4 | 29.5 | 32.1 | 35.4 | 39.3
333.15 K | 23.2 | 24.9 | 26.9 | 29.5 | 32.6
338.15 K | 19.9 | 21.2 | – | 24.9 | 27.4
343.15 K | 17.2 | 18.3 | 19.6 | 21.3 | –
348.15 K | 15 | 15.9 | 16.9 | – | 19.9
353.15 K | – | 13.9 | 14.8 | 15.9 | –

CCC[N+](C)(C)C.O=S(=O)([N-]S(=O)(=O)C(F)(F)F)C(F)(F)F + CCC[N+]1(C)CCCC1.O=S(=O)([N-]S(=O)(=O)C(F)(F)F)C(F)(F)F
viscosity [mPa·s]
Conditions | x1 = 0.2 | x1 = 0.4 | x1 = 0.6 | x1 = 0.8 | x1 = 1
283.15 K | 129 | – | – | 160 | –
288.15 K | 101 | 104 | – | 121 | –
293.15 K | 78 | – | 88 | 94 | 102
298.15 K | 63 | 65 | 70 | 74 | 79
303.15 K | 51 | 52 | 56 | – | 63
308.15 K | – | 43.1 | – | 48.3 | 51
313.15 K | 35.2 | 35.9 | – | 39.9 | 42
318.15 K | 29.8 | 30.3 | 32.1 | – | 35
323.15 K | 25.5 | 25.8 | 27.3 | – | –
328.15 K | – | – | 23.4 | – | 25.2
333.15 K | – | – | – | 20.9 | –
338.15 K | 16.8 | 16.9 | 17.7 | 18.2 | 18.8
343.15 K | 14.8 | – | 15.6 | 16 | 16.5
348.15 K | 13.2 | – | 13.8 | 14.2 | 14.6
353.15 K | – | 11.9 | – | 12.6 | 12.9

CCC[N+]1(C)CCCCC1.O=S(=O)([N-]S(=O)(=O)C(F)(F)F)C(F)(F)F + CCC[N+](C)(C)C.O=S(=O)([N-]S(=O)(=O)C(F)(F)F)C(F)(F)F
x2 = 0
Conditions | viscosity [mPa·s]
283.15 K | 397
288.15 K | 277
308.15 K | 87
318.15 K | 55
323.15 K | 45.1
328.15 K | 37.3
333.15 K | 31.4
348.15 K | 19.8
353.15 K | 17.3

CCC[N+](C)(C)C.O=S(=O)([N-]S(=O)(=O)C(F)(F)F)C(F)(F)F + CCC[N+]1(C)CCCCC1.O=S(=O)([N-]S(=O)(=O)C(F)(F)F)C(F)(F)F
viscosity [mPa·s]
Conditions | x1 = 0.2 | x1 = 0.4 | x1 = 0.6 | x1 = 0.8 | x1 = 1
283.15 K | 340 | 292 | – | – | 179
288.15 K | 240 | 209 | 180 | 149 | 133
293.15 K | 175 | 154 | – | – | 102
298.15 K | 131 | 117 | 103 | 88 | 79
303.15 K | 101 | 90 | 80 | 70 | 63
308.15 K | 78 | – | – | 56 | 51
313.15 K | 62 | 57 | 51 | – | 42
318.15 K | 51 | – | – | 38 | 35
323.15 K | 41.5 | 38.4 | 35.2 | 31.8 | 29.5
328.15 K | 34.6 | 32.1 | 29.6 | 27 | 25.2
333.15 K | 29.1 | 27.2 | 25.3 | 23.2 | 21.7
338.15 K | 24.8 | 23.3 | 21.7 | 20 | 18.8
343.15 K | 21.4 | – | 18.9 | – | 16.5
348.15 K | 18.6 | 17.6 | 16.5 | – | –
353.15 K | 16.3 | 15.4 | 14.6 | 13.6 | 12.9

CCC[N+]1(C)CCCC1.O=S(=O)([N-]S(=O)(=O)C(F)(F)F)C(F)(F)F + CCC[N+](C)(C)C.O=S(=O)([N-]S(=O)(=O)C(F)(F)F)C(F)(F)F
x2 = 0
Conditions | viscosity [mPa·s]
283.15 K | 126
288.15 K | 97
293.15 K | 76
303.15 K | 50
308.15 K | 41.1
313.15 K | 34.4
318.15 K | 29.2
323.15 K | 25
328.15 K | 21.6
333.15 K | 18.8
338.15 K | 16.6
343.15 K | 14.7
348.15 K | 13.1
353.15 K | 11.7

CCCCC[P+](CC)(CC)CC.O=S(=O)([N-]S(=O)(=O)C(F)(F)F)C(F)(F)F + CCCCC[N+](CC)(CC)CC.O=S(=O)([N-]S(=O)(=O)C(F)(F)F)C(F)(F)F
x2 = 0
Conditions | viscosity [mPa·s]
288.15 K | 150
293.15 K | 113
298.15 K | 87
303.15 K | 69
308.15 K | 55
313.15 K | 44.5
318.15 K | 36.6
328.15 K | 25.6
333.15 K | 21.8
338.15 K | 18.7
343.15 K | 16.2
348.15 K | 14.2
353.15 K | 12.5
